Experimental data taken from patent US4594342A, “1,5-benzothiazepine derivative” (priority 1984, dated 1986).
Counter-ions that a name gives are not always drawn.

Tests used:
rat platelets [1] = assay: Inhibitory effect ex vivo on collagen-induced platelet aggregation of rat platelets after oral administration (Experiment 2); type: in vivo; conditions: 10 mg/kg orally, Sprague-Dawley rats fasted about 20 hours, blood 3 hours after administration
Description: A test compound solution (Dose: 10 mg/kg) was orally administered to Sprague-Dawley rats fasted for about 20 hours. Three hours after administration, blood was collected from the abdominal aorta of the rats. […] The bottom layer was further centrifuged to give platelet-poor plasma ("PPP") as the supernatant solution. PRP was diluted with PPP so that the blood platelet counts were 0.8-1×10^6 /mm^3.

Rat platelets [2] = assay: Inhibitory effects in vitro on collagen-induced platelet aggregation of rat platelets (Experiment 1); type: cell-based; conditions: rat PRP, 37° C., read-out: IC50 (concentration of test compound required to induce 50% inhibition of collagen-induced platelet aggregation)
Text: (§1) (Inhibitory effects in vitro on collagen-induced platelet aggregation of rat or human platelets)
(§2) The bottom layer was further centrifuged to give platelet-poor plasma ("PPP") as the supernatant solution. Platelet counts were adjusted to about 0.8-1×10^6 /mm^3 for rat PRP and about 4×10^5 /mm^3 for human PRP by dilution with PPP.

Human platelets = assay: Inhibitory effects in vitro on collagen-induced platelet aggregation of human platelets (Experiment 1); type: cell-based; conditions: human PRP, 37° C., read-out: IC50 (concentration of test compound required to induce 50% inhibition of collagen-induced platelet aggregation)
Text: as §1, §2

| IC50 (Rat platelets [2]) | IC50 (Human platelets) | Compound | Platelet aggregation-inhibiting activity (rat platelets [1]) |
| --- | --- | --- | --- |
| – | – | CNCCN1C(=O)[C@H](O)[C@H](c2ccc(OC)cc2)Sc2cc(O)ccc21 (relative stereo) [(±)-cis-2-(4-methoxyphenyl)-3,8-dihydroxy-5-[2-(N--methylamino)ethyl]-2,3-dihydro-1,5-benzothiazepin-4(5H)--one hydrochloride] | ++ ((++) if the percentage inhibition is not less than 50%) |
| 0.1 µg/mL | 0.003 to 0.03 µg/mL | CNCCN1C(=O)[C@H](O)[C@H](c2ccc(C)cc2)Sc2cc(C)ccc21 (single isomer, unassigned) [(-)-cis-2-(4-methylphenyl)-3-hydroxy-5-[2-(N-methylamino)ethyl]-8-methyl-2,3-dihydro-1,5-benzothiazepin-4(5H)-one hydrochloride hemihydrate] | – |
| 0.3 to 1 µg/mL | 0.5 µg/mL | CNCCN1C(=O)[C@H](O)[C@H](c2ccc(C)cc2)Sc2cc(OC)ccc21 (relative stereo) [(±)-cis-2-(4-methylphenyl)-3-hydroxy-5-[2-(N--methylamino)ethyl]-8-methoxy-2,3-dihydro-1,5-benzothiazepin-4(5H)--one hydrochloride] | – |
| 0.1 to 0.3 µg/mL | – | CNCCN1C(=O)[C@H](O)[C@H](c2ccc(C)cc2)Sc2cc(C)ccc21 (relative stereo) [(±)-cis-2-(4-methylphenyl)-3-hydroxy-5-[2-(N--methylamino)ethyl]-8-methyl-2,3-dihydro-1,5-benzothiazepin-4(5H)--one sulfate] | – |
| – | 0.3 µg/mL | CNCCN1C(=O)[C@H](O)[C@H](c2ccc(C)cc2)Sc2cc(C)ccc21 (relative stereo) [(±)-cis-2-(4-methylphenyl)-3-hydroxy-5-[2-(N--methylamino)ethyl]-8-methyl-2,3-dihydro-1,5-benzothiazepin-4(5H)--one hydrochloride] | ++ ((++) if the percentage inhibition is not less than 50%) |
| – | – | CNCCN1C(=O)[C@H](OC(C)=O)[C@H](c2ccc(OC)cc2)Sc2cc(C)ccc21 (relative stereo) [(±)-cis-2-(4-methoxyphenyl)-3-acetoxy-5-[2-(N-methylamino)ethyl]-8-methyl-2,3-dihydro-1,5-benzothiazepin-4(5H)-one hydrochloride. 1/2H2 O.1/2C2 H5 OH] | ++ ((++) if the percentage inhibition is not less than 50%) |
| – | – | CNCCN1C(=O)[C@H](O)[C@H](c2ccc(OC)cc2)Sc2cc(C)ccc21 (single isomer, unassigned) [(-)-cis-2-(4-methoxyphenyl)-3-hydroxy-5-[2-(N--methylamino)ethyl]-8-methyl-2,3-dihydro-1,5-benzothiazepin-4(5H)--one hydrobromide] | ++ ((++) if the percentage inhibition is not less than 50%) |
| – | 0.3 µg/mL | Br.CNCCN1C(=O)[C@H](O)[C@H](c2ccc(C)cc2)Sc2ccccc21 (racemic) [(±)-cis-2-(4-methylphenyl)-3-hydroxy-5-[2-(N-methylamino)ethyl]-2,3-dihydro-1,5-benzothiazepin-4(5H)-one hydrobromide] | – |
| – | – | CNCCN1C(=O)[C@H](O)[C@H](c2ccc(OC)cc2)Sc2cc(C)ccc21.Cl (racemic) [(±)-cis-2-(4-methoxyphenyl)-3-hydroxy-5-[2-(N-methylamino)ethyl]-8-methyl-2,3-dihydro-1,5-benzothiazepin-4(5H)-one hydrochloride] | ++ ((++) if the percentage inhibition is not less than 50%) |
| – | – | CNCCN1C(=O)[C@H](OC(C)=O)[C@H](c2ccc(OC)cc2)Sc2cc(C)ccc21.O=C(O)C(=O)O (single isomer, unassigned) [(-)-cis-2-(4-methoxyphenyl)-3-acetoxy-5-[2-(N-methylamino)ethyl]-8-methyl-2,3-dihydro-1,5-benzothiazepin-4(5H)-one oxalate] | ++ ((++) if the percentage inhibition is not less than 50%) |

| Compound | IC50 (Rat platelets [2]) | IC50 (Human platelets) | Platelet aggregation-inhibiting activity (rat platelets [1]) |
| --- | --- | --- | --- |
| CNCCN1C(=O)[C@H](OC(C)=O)[C@H](c2ccc(C)cc2)Sc2cc(OC)ccc21 (relative stereo) [(±)-cis-2-(4-methylphenyl)-3-acetoxy-5-[2-(N--methylamino)ethyl]-8-methoxy-2,3-dihydro-1,5-benzothiazepin-4(5H)--one oxalate] | – | 0.5 µg/mL | – |
| CNCCN1C(=O)[C@H](OC(C)=O)[C@H](c2ccc(C)cc2)Sc2cc(C)ccc21 (relative stereo) [(±)-cis-2-(4-methylphenyl)-3-acetoxy-5-[2-(N--methylamino)ethyl]-8-methyl-2,3-dihydro-1,5-benzothiazepin-4(5H)--one hydrochloride] | 0.5 µg/mL | – | ++ ((++) if the percentage inhibition is not less than 50%) |
